Measured values taken from the OligoGym collection.
These antisense oligonucleotides have a phosphorothioate backbone; sugars and methylation of C are not fully specified.

Columns and labels:
Conditions in all cases: ASO
PRKCA = target: PRKCA
ABCB1 = target: ABCB1
IGF2 = target: IGF2
ABCC1 = target: ABCC1
Agtr1a (rat) = target: Agtr1a (rat)
IL11 = target: IL11
Further: test concentration or dose not given here.

In the case of AAAACGTCAGCCATGGTCCC, the remaining target (mRNA or protein) (fraction of control) (PRKCA) is reported as 0.39.
AAAAGTTCTTCTTTGCTGCT showed a remaining target (mRNA or protein) (fraction of control) (ABCB1) of 0.92.
With AAGAGAGAGACCCTGAACAG the remaining target (mRNA or protein) (fraction of control) (PRKCA) was 0.62.
With ACCGCGCTTTCCTCCCGCCG the remaining target (mRNA or protein) (fraction of control) (IGF2) was 0.53.
For ACCGGATGGCGGTGGCTGCT, the remaining target (mRNA or protein) (fraction of control) (ABCC1) was 0.73.
ACTGACAGTTGGTTTCTTT showed a remaining target (mRNA or protein) (fraction of control) (ABCB1) of 0.84.
ACTTTTATTGTTCAGTTTAAA showed a remaining target (mRNA or protein) (fraction of control) (ABCB1) of 0.97.
For AGCCCCAGCGACCCCAGCGT, the remaining target (mRNA or protein) (fraction of control) (IGF2) was at least 1.
In the case of AGCCCCGGAGCGCCATGCCG, the remaining target (mRNA or protein) (fraction of control) (ABCC1) is reported as 0.74.
Work on AGCCGTGGCCTTAAAATTTT yielded a remaining target (mRNA or protein) (fraction of control) (PRKCA) of 0.84.
For AGGCCCTGCAGTTCTGACCA, the remaining target (mRNA or protein) (fraction of control) (ABCC1) was 0.95.
AGTCGGTGCAGTGGCTGGAG was tested, and the remaining target (mRNA or protein) (fraction of control) (PRKCA) was 0.88.
AGTTCTTCTTTGCTGCTCCA was tested, and the remaining target (mRNA or protein) (fraction of control) (ABCB1) was 0.7.
ATACTGACAGTTGGTTTCT was tested, and the remaining target (mRNA or protein) (fraction of control) (ABCB1) was 0.65.
Sequence ATGGGGTGCACAAACTGGGG has a remaining target (mRNA or protein) (fraction of control) (PRKCA) of 0.94.
With ATTTTCAGGCCTCCATATGG the remaining target (mRNA or protein) (fraction of control) (PRKCA) was 0.82.
In the case of CACTGCGGGGAGGGCTGGGG, the remaining target (mRNA or protein) (fraction of control) (PRKCA) is reported as at least 1.
CAGGAGGTCCGATGGGGCGC gave a remaining target (mRNA or protein) (fraction of control) (ABCC1) of 0.95.
CATCCCGACCTCGCGCTCCT showed a remaining target (mRNA or protein) (fraction of control) (ABCB1) of 0.
Work on CCCACCTCCATCACCATGGC yielded a remaining target (mRNA or protein) (fraction of control) (IGF2) of 0.52.
Sequence CCCCAACCACCTCTTGCTCC has a remaining target (mRNA or protein) (fraction of control) (PRKCA) of 0.39.
For CCCGACCTCGCGCTCCTTGG, the remaining target (mRNA or protein) (fraction of control) (ABCB1) was 0.15.
Sequence CCCGGGAAAACGTCAGCCAT has a remaining target (mRNA or protein) (fraction of control) (PRKCA) of 0.52.
Work on CCGGTGGCGCGGGCGGCGGC yielded a remaining target (mRNA or protein) (fraction of control) (ABCC1) of 0.69.
Sequence CGATCTTGTGCGGTGTCCTG has a remaining target (mRNA or protein) (fraction of control) (IGF2) of 0.86.
CGCATCTCTGTCTCTCCTGG showed a remaining target (mRNA or protein) (fraction of control) (ABCC1) of 0.77.
CGCCGTGGAGTCGTTGCCCG gave a remaining target (mRNA or protein) (fraction of control) (PRKCA) of 0.54.
With CGCGCATGTCATCGGGAATG the remaining target (mRNA or protein) (fraction of control) (IGF2) was 0.31.
Work on CGCGCTGCTTCTGGCCCCCA yielded a remaining target (mRNA or protein) (fraction of control) (ABCC1) of 0.56.
CGCGTCCTTGGAACGGCCAC showed a remaining target (mRNA or protein) (fraction of control) (ABCB1) of 0.15.
CGGGGCCGCAACGCCGCCTG was tested, and the remaining target (mRNA or protein) (fraction of control) (ABCC1) was 0.95.
Work on CGGTCCCCTTCAAGATCCAT yielded a remaining target (mRNA or protein) (fraction of control) (ABCB1) of 0.
CGTCCTTGGAACGGCCACCA showed a remaining target (mRNA or protein) (fraction of control) (ABCB1) of 0.18.
With CTCCTCCCTGGGCGCTGGCA the remaining target (mRNA or protein) (fraction of control) (ABCC1) was 0.74.
In the case of CTCTTCTGCCCTGTTTTGTC, the remaining target (mRNA or protein) (fraction of control) (IGF2) is reported as 0.31.
CTGCCTCAGCGCCCCTTTGC was tested, and the remaining target (mRNA or protein) (fraction of control) (PRKCA) was 0.47.
With GACCTCGCGCTCCTTGGAAC the remaining target (mRNA or protein) (fraction of control) (ABCB1) was 0.17.
GAGACCCTGAACAGTTGATC showed a remaining target (mRNA or protein) (fraction of control) (PRKCA) of 0.61.
GAGCTTGGAAGAGCCGCTACT was tested, and the remaining target (mRNA or protein) (fraction of control) (ABCB1) was 0.54.
GATAATGTTCTTGGTTGTAA was tested, and the remaining target (mRNA or protein) (fraction of control) (PRKCA) was 0.85.
With GCAGAGGCTGGGGACATTGA the remaining target (mRNA or protein) (fraction of control) (PRKCA) was 0.81.
GCGGCGATGGGCGTGGCCAG gave a remaining target (mRNA or protein) (fraction of control) (ABCC1) of 0.73.
Work on GCTCACACCAAGCCGGCGTC yielded a remaining target (mRNA or protein) (fraction of control) (ABCC1) of 0.78.
Sequence GGAACTCAGTGGAACTCAGG has a remaining target (mRNA or protein) (fraction of control) (IGF2) of 0.11.
GGATTCACTTCCACTGCGGG was tested, and the remaining target (mRNA or protein) (fraction of control) (PRKCA) was 0.82.
With GGCACCCACACGAGGACCGT the remaining target (mRNA or protein) (fraction of control) (ABCC1) was 0.79.
Work on GGCGTAGAGGTTGAAGCTCA yielded a remaining target (mRNA or protein) (fraction of control) (Agtr1a (rat)) of 0.27.
Sequence GGGAGCGTCGAATTCCGAGA has a remaining target (mRNA or protein) (fraction of control) (Agtr1a (rat)) of 0.21.
GGGCTGGGGAGGTGTTTGTT showed a remaining target (mRNA or protein) (fraction of control) (PRKCA) of 0.95.
Work on GGGTTCAGGCAGTTGTTAAA yielded a remaining target (mRNA or protein) (fraction of control) (Agtr1a (rat)) of 0.29.
With GGTATAGCTGGTGAGAATGAT the remaining target (mRNA or protein) (fraction of control) (Agtr1a (rat)) was 0.46.
For GGTCGATGCTGAGACACGTG, the remaining target (mRNA or protein) (fraction of control) (Agtr1a (rat)) was 0.49.
GGTGATCGGGCCCGGTTGCT was tested, and the remaining target (mRNA or protein) (fraction of control) (ABCC1) was 0.68.
Sequence GTCAGCCATGGTCCCCCCCC has a remaining target (mRNA or protein) (fraction of control) (PRKCA) of 0.46.
In the case of GTCGAATTCCGAGACTCATA, the remaining target (mRNA or protein) (fraction of control) (Agtr1a (rat)) is reported as 0.25.
GTGAAGGCAGACCACCGACC gave a remaining target (mRNA or protein) (fraction of control) (IGF2) of 0.27.
With GTGATGGGCATGGCAGTGTC the remaining target (mRNA or protein) (fraction of control) (Agtr1a (rat)) was 0.29.
For GTTCTCGCTGGTGAGTTTCA, the remaining target (mRNA or protein) (fraction of control) (PRKCA) was 0.52.
TAAAGGGTATAGCTGGTGAGA was tested, and the remaining target (mRNA or protein) (fraction of control) (Agtr1a (rat)) was 0.35.
For TAAATAAGGACCAGCTCCCA, the remaining target (mRNA or protein) (fraction of control) (IGF2) was 0.41.
With TACAAGATAGTACAGTACGC the remaining target (mRNA or protein) (fraction of control) (IGF2) was 0.33.
TACTCCGACTTTAGTGGAAA showed a remaining target (mRNA or protein) (fraction of control) (ABCB1) of 0.84.
With TCAAATGGAGGCTGCCCGGC the remaining target (mRNA or protein) (fraction of control) (PRKCA) was 0.66.
TCACCATGGCCAGCCCCAGC was tested, and the remaining target (mRNA or protein) (fraction of control) (IGF2) was 0.81.
For TCCCCTTCAAGATCCATCCC, the remaining target (mRNA or protein) (fraction of control) (ABCB1) was 0.2.
For TCCGACTTTAGTGGAAAGAC, the remaining target (mRNA or protein) (fraction of control) (ABCB1) was 0.9.
In the case of TCGGAGCCATCGGCGCTGCA, the remaining target (mRNA or protein) (fraction of control) (ABCC1) is reported as 0.8.
For TCTTCTTTGCTCCTCCATTG, the remaining target (mRNA or protein) (fraction of control) (ABCB1) was 0.67.
Sequence TGACAGTTGGTTTCTTTCC has a remaining target (mRNA or protein) (fraction of control) (ABCB1) of 0.85.
TGCTGTTCGTGCCCCCGCCG showed a remaining target (mRNA or protein) (fraction of control) (ABCC1) of 0.51.
TGGAATCAGACACAAGCCGT gave a remaining target (mRNA or protein) (fraction of control) (PRKCA) of 0.89.
TGGTGATGGGCATGGCAGTG gave a remaining target (mRNA or protein) (fraction of control) (Agtr1a (rat)) of 0.21.
With TTCAGGCAGTTGTTAAAATA the remaining target (mRNA or protein) (fraction of control) (Agtr1a (rat)) was 0.86.
TTGAGCTTGGAAGAGCCGCTA showed a remaining target (mRNA or protein) (fraction of control) (ABCB1) of 0.54.
TTGCGGTCCCCTTCAAGATC was tested, and the remaining target (mRNA or protein) (fraction of control) (ABCB1) was 0.09.
Work on TTGGACGGACGGCCGTGGAG yielded a remaining target (mRNA or protein) (fraction of control) (IL11) of 0.75.
TTTTATTGTTCAGTTTAAAAA was tested, and the remaining target (mRNA or protein) (fraction of control) (ABCB1) was 0.92.
